In patent US9784732B2, “Acidic environment-detecting fluorescent probe” (THE UNIVERSITY OF TOKYO, priority 2011, dated 2017):
Where two headings read alike, the source gives them in different places.

Columns and labels:
[1] = pH profile of fluorescent intensity (pKa) in phosphate buffer; assay type: physicochemical; conditions: sodium phosphate buffer, from pH profile of fluorescent intensity
Experimental: (§1) In order to measure absorption and fluorescence spectra, a dye compound was dissolved in dimethyl sulfoxide (DMSO, fluorescent analysis-grade, Dojindo) to obtain 1 mM of standard solution. Using a UV-1650 PCUV/V spectrometer (Shimadzu) and an FP-6600 fluorescence spectrometer (JASCO), the optical properties of the dye compound in 200 mM of a sodium phosphate buffer solution containing 0.03% (v/v) DMSO as a cosolvent were measured. In order to determine fluorescence quantum yield (Φf1), the value (Φf1=0.65) of Rhodamine B in ethanol was used as a standard. The value was calculated according to the following formula. Φx/Φst=[Ast/Ax][nx^2/nst^2][Dx/Dst]
The absorption spectrum and fluorescence emission spectrum when solution pH was altered from 2.0 to 10.0 for Compound A obtained in Example 1 were obtained according to the measurement method described above.
Using a 100 mM phosphate buffer solution of Compound 1 (500 nM) obtained in Example 2, pH was altered from 4.39 to 9.24, and the fluorescence spectrum was measured.
A fitted curve for the pH profile was obtained according to the following formula.
Next, in order to investigate the reversibility of pH changes in Dye Conjugate 1, the fluorescent intensity ratio (fluorescent intensity at 540 nm/fluorescent intensity at 488 nm) was calculated for a case in which pH was cycled between 7.1 and 3.2 every 30 seconds.

[2] = in ethanol; cited from earlier work
[3] = Optical properties and fluorescence quantum yield; assay type: physicochemical; conditions: for Maximum Absorption Wavelength (nm) / Maximum Emission Wavelength (nm): 200 mM sodium phosphate buffer, 0.03% (v/v) DMSO
Experimental: as §1
The absorption spectrum and fluorescence emission spectrum when solution pH was altered from 2.0 to 10.0 for Compound A obtained in Example 1 were obtained according to the measurement method described above. Absorption spectra are shown in FIG. 1-1, fluorescence emission spectra in FIG. 1-2, and a pH profile showing pH-induced changes in fluorescent intensity in FIG. 1-3. The maximum absorption wavelength, maximum emission wavelength, fluorescent quantum yield, and pKa when pH is changed from 10.0 to 4.0 are shown in table 1.

HER2 = assay: High-throughput evaluation of HER2 downregulation; assay type: cell-based; conditions: 17-AAG 10 μM with Compound 3 30 nm; SKOV3 cells expressing HER2-HaloTag; five hours; versus DMSO
Experimental: The pH-sensitive fluorescent probe Compound 3 and 17-AAG (Wako Pure Chemicals) were diluted with water. An equal amount of DMSO (Sigma-Aldrich) was added as a control for the 17-AAG. SKOV3 cells expressing the HER2-HaloTag were suspended in RPMI (Nacalai Tesque) containing 2% FBS (CCB), implanted in a 384-well imaging plate (PerkinElmer), and cultured overnight at 37° C. in a 5% CO2 atmosphere.
Compound 3 and 17-AAG were added to […] of a 384-well imaging plate implanted with SKOV3 cells expressing the HER2-HaloTag to respective final concentrations of 30 nm and 10 μM. DMSO alone was added to 32 wells instead of 17-AAG as a control. Fluorescence values at 580 nm induced by 535 excitation were measured using a plate reader, after which culturing was performed at 37° C. in a 5% CO2 atmosphere for five hours, and fluorescence values were again measured using the plate reader. […] In this way, it is possible to simply evaluate downregulation of the cancer-related receptor HER2 via fluorescence values.

With `CN1CCN(c2ccc3c(-c4ccccc4C(=O)N(C)CC(=O)NCCOCCOCCOCCC(=O)[O-])c4ccc(=[N+]5CCN(C)CC5)cc-4oc3c2)CC1` [Compound D, 2-methyl-1-(2-(3-(4-methylpiperazine-1-ium-1-ylidene)-6-(4-methylpiperazine-1-yl)-3H-xanthene-9-yl)phenyl)-1,4-dioxo-8,11,14-trioxa-2,5-diazaheptadecane-17-oate] the pKa ([1]; read-out: pKa (higher, pKa2)) was 6.6 and the pKa ([1]; read-out: pKa (lower, pKa1)) was 5.3.

For `CCN(CC)c1ccc2c(-c3ccccc3C(=O)O)c3ccc(=[N+](CC)CC)cc-3oc2c1.[Cl-]` [Rhodamine B], the “Fluorescence Quantum Yield of the standard” value [2] is given as 0.65.

In the case of `CN1CCN(c2ccc3c(-c4ccccc4C(=O)O)c4ccc(=[N+]5CCN(C)CC5)cc-4oc3c2)CC1.[Cl-]` [Compound A, 1-(9-(2-carboxyphenyl)-6-(4-methylpiperazine-1-yl)-3H-xanthene-3-ylidene)-4-methylpiperazine-1-ium chloride], the pKa ([1]; read-out: pKa (higher, pKa2)) is reported as 6.8, the pKa ([1]; read-out: pKa (lower, pKa1)) is reported as 5.4 and the “Shift of maximum absorption wavelength to shorter wavelength” value ([3]; deprotonated type (pH 10.0) to protonated type (pH 4.0)) is reported as 20 nm. The “Maximum Absorption Wavelength (nm)” value ([3]; pH 4.0) was 527 nm, the “Maximum Emission Wavelength (nm)” value ([3]; pH 4.0) was 554 nm and the “Fluorescence Quantum Yield” value ([3]; pH 10.0 (deprotonated type), standard Rhodamine B in ethanol) was 0.024. For the same compound, the “Maximum Absorption Wavelength (nm)” value ([3]; pH 10.0) was 547 nm and the “Maximum Emission Wavelength (nm)” value ([3]; pH 10.0) was 575 nm.

For `C=CCNC1=C2C[C@@H](C)C[C@H](OC)[C@H](O)[C@@H](C)/C=C(\C)[C@H](OC(N)=O)[C@@H](OC)/C=C\C=C(/C)C(=O)NC(=CC1=O)C2=O` [Compound 17-AAG], the “Difference in fluorescence values before and after culturing (F5−F0)” value (HER2) was “large increase in fluorescence values”.
